Results as given in paper PMC6694155, “PTPσ inhibitors promote hematopoietic stem cell regeneration” (Nature Communications, 2019).
Where “and” joins values, the source holds several entries; their conditions need not be identical. Equal entries are not always repeated.

Assays:
[1] = system: BM KSL cells; test: CFC assay from 300 cGy-irradiated BM KSL cells, 3 day culture; type: cell-based, mouse; set-up: CFU-GM / BFU-E: unit not given here
Experimental: CFC assays (colony-forming unit-granulocyte monocyte), burst-forming unit-erythroid, and CFU-GEMM were performed using MethoCult GF M3434 (Stemcell Technologies)[6]. […] Recombinant mouse SCF, Flt3 ligand, and TPO were purchased from R&D Systems. For competitive repopulation assays, BM cells were isolated from donor 10–12-week-old female CD45.2^+ mice. Recipient 10-week-old female CD45.1^+ B6.SJL mice were irradiated with 950 cGy TBI using a Cs137 irradiator and donor BM cells were administered via tail vein injection along with a competing dose of 1 × 10^5 non-irradiated host BM cells. Multilineage donor hematopoietic cell engraftment was measured in the PB by flow cytometry.

[2] = system: C57BL/6 mice; test: Survival study after 750 cGy TBI; type: in vivo, mouse; settings: 750 cGy, systemic EHT1864
Experimental: For survival studies, 10-week-old female C57BL/6 mice were irradiated with 750 cGy TBI, which is lethal for ~50% of C57BL/6 mice by day + 30 (LD50/30), using a Shepherd Cesium-137 irradiator. Twenty four hours post irradiation, mice were administered daily subcutaneous injections of 5 mg/kg DJ001 or DJ009, or vehicle in a volume of 100 μL for 10 days. DJ001 or DJ009 injections were prepared in PBS, 0.5% Tween 80, and 10% DMSO. Corresponding vehicle injections contained PBS, 10% DMSO, and 0.5% Tween 80. PB complete blood counts were measured using a Hemavet 950 instrument (Drew Scientific) at day + 10 post irradiation. For hematopoietic analysis, BM cells were collected at day + 10 post irradiation. To study whether DJ001 increased survival rates through activation of RAC signaling, the RAC inhibitor, EHT1864 (Selleckchem), was dissolved in PBS and administered intraperitoneally, 40 mg/kg every other day, to 750 cGy-irradiated mice until day + 10.

[3] = system: p-PAK1 in BM KSL cells; test: p-PAK1 phospho-flow cytometry of BM KSL cells; type: cell-based, mouse; settings: BM KSL cells, DJ001 + 6 μg/mL EHT1864
Experimental: (§1) Intracellular flow cytometric analysis was performed on irradiated (300 cGy) or non-irradiated, sorted KSL cells after treatment with 1 μg/mL DJ001 or control (equal volumes of DMSO) for 24 h. At 24 h after irradiation, cells were fixed with 4% PFA for 10 min, followed by permeabilization using 0.25% saponin in PBS. Cells were washed again and stained with antibody at the recommended concentrations for 30 min at RT. Intracellular antibodies and phospho-flow antibodies used were as follows: FITC-conjugated anti-BCL-XL (Abcam, #26148, 1:100), active RAC1-GTP antibody (NewEast Biosciences, #26903, 1:100) and anti-PAK1 (phospho S144) + PAK2 (phospho S141) + PAK3 (phospho S154) antibody (Abcam, #40795, 1:100), and FITC-conjugated goat anti-rabbit IgG H&L (Abcam, #97050, 1:200).

[4] = system: BM KSL cells; test: Annexin V/7AAD apoptosis assay of BM KSL cells from mice 24 h post 500 cGy TBI; type: in vivo, mouse
Experimental: (§2) Eight- to ten-week-old female C57BL/6 mice were irradiated with 500 cGy TBI followed by subcutaneous injections of 5 mg/kg DJ001 or vehicle, or 5 mg/kg DJ001 plus 40 mg/kg EHT1864. Twenty four hours after irradiation, mice were killed to collect BM cells for Annexin V apoptosis analysis. BM cells were stained with APC-Cy7-conjugated anti-mouse Sca1 (BD Biosciences, #560654, 1:100), PE-conjugated anti-ckit (BD Biosciences, #553355, 1:100), and V450 lineage cocktail (BD Biosciences, #561301, 1:10) antibodies for 30 min at 4 °C. Cells were then resuspended in 1× Annexin V binding buffer and then stained with FITC-conjugated anti-Annexin V antibody (BD Biosciences, #556547,1:50) and 7AAD antibody (BD Biosciences, #559925, 1:40)[68]. For in vitro human BM cell apoptosis assays, isolated human BM CD34^+ cells were plated into 96-well plates and then irradiated with 300 cGy. Immediately after irradiation, cells were treated with 5 μg/mL DJ001 or vehicle for 24 h and then collected for Annexin V cell apoptosis analysis. For cell cycle analysis, BM KSL cells were irradiated at 300 cGy and then treated with 1 μg/mL DJ001 or vehicle for 36 h. Subsequently, cells were resuspended in 200 μL of PBS, fixed with 1 mL of ice-cold fixation solution (0.25% Saponin, 2.5% PFA, 2% fetal calf serum (FCS) in PBS), and incubated for 30 min on ice. Cells were washed in Saponin buffer (0.25% Saponin, 2% FCS in PBS) and resuspended in 200 μL of Saponin buffer containing 20 μL of FITC-conjugated anti-Ki67 antibody (BD Biosciences, #556026, 1:10) and 1 μL of RNase (Qiagen, #19101, 100 mg/mL). After 30 min of incubation, cells were washed in Saponin buffer and resuspended for flow analysis in 200 μL of Saponin buffer containing 5 μL 7AAD (BD Biosciences, #559925, 1:40).

[5] = system: BM KSL cells; test: Cell cycle analysis (Ki67/7AAD) of BM KSL cells; type: cell-based, mouse; settings: BM KSL cells following irradiation
Experimental: as §2

[6] = system: catalytic domain of PTPσ; set-up: method as in PMID 23185579; settings: cited from earlier work
[7] = system: BCL-XL in BM KSL cells; test: BCL-XL protein intracellular flow cytometry of BM KSL cells; type: cell-based, mouse; settings: BM KSL cells, 24 hours following 300 cGy, 43 ng/ml BVD523
Experimental: as §1

## O=c1cc(CN2CCOCC2)occ1OCCCCCSc1ccnc2cc(C(F)(F)F)ccc12 [EHT1864, reference compound]
[1]; BM KSL cells irradiated with 300 cGy in vitro, 6 µg/ml EHT1864
  effect on DJ001-mediated CFC generation: inhibited DJ001-mediated CFC generation
[1]; Supplementary Figure 7d
  BFU-E: 1 and 2
  CFU-GM: 9 and 6 and 11 and 10 and 12
[2]
  effect on DJ001-mediated increase in survival of irradiated mice: completely blocked DJ001-mediated increase in survival
[3]
  effect on DJ001-mediated phosphorylation of PAK1: abrogated DJ001-mediated phosphorylation of PAK1
[4]; 24 h post 500 cGy TBI, individual mice
  Figure 3e: Annexin V/7AAD apoptosis of BM KSL cells: 24.85 and 19.31 and 21.21 and 22.28
[4]; irradiated mice
  effect on DJ001-mediated anti-apoptotic effects on BM KSL cells: abrogated DJ001-mediated anti-apoptotic effects
[5]
  effect on DJ001-mediated induction of cell cycle progression: suppressed DJ001-mediated induction of cell cycle progression

## O=C(/C=C\Nc1cc([N+](=O)[O-])ccc1O)c1ccc(Cl)c(Cl)c1 [compound 5075, reference compound]
[6]
  reported properties against the catalytic domain of PTPσ: binding and inhibitory properties

## COc1ccc2c(c1)/C(=C/c1cnc[nH]1)C(=O)N2 [SU9516, reference compound]
[5]
  effect on DJ001-mediated induction of cell cycle progression: suppressed DJ001-mediated induction of cell cycle progression

## CC(C)Nc1cc(-c2c[nH]c(C(=O)N[C@H](CO)c3cccc(Cl)c3)c2)c(Cl)cn1 [BVD523, reference compound]
[1]; DJ001 + 43 ng/mL BVD523, 300 cGy, day +3
  effect on hematopoietic progenitor cell recovery following irradiation: abrogated hematopoietic progenitor cell recovery
[7]
  effect on DJ001-mediated increase in BCL-XL protein levels: blocked DJ001-mediated increase in BCL-XL protein levels
